# US4327097A, “Novel penicillins” (Toyama Chemical Co., Ltd., priority 1974, dated 1982)
# Columns and labels:
# Proteus vulgaris = test: MIC against clinical isolates; type: cell-based; conditions: Table 5-6, clinical isolate; unit assumed
# Escherichia coli = test: MIC against clinical isolates; type: cell-based; conditions: Table 5-2, clinical isolate; unit assumed
# Escherichia coli NIHJ = test: MIC, plate method, standard strains; type: cell-based; conditions: Table 3, standard strain; unit assumed
# Procedure, shortened: (§1)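 Plates of Heart infusion agar (pH 7.4) containing compound dilutions; 10^4-cell inoculum, from 10^6 cells/ml; lowest concentration preventing growth reported.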
# [1] = test system: Staphylococcus aureus 209p; test: MIC, plate method, standard strains; type: cell-based; conditions: Table 3, standard strain, Heart infusion agar pH 7.4; unit assumed
# Procedure, shortened: as §1
# [2] = test system: Pseudomonas aeruginosa I.F.O.; test: MIC, plate method, standard strains; type: cell-based; conditions: Table 3, standard strain; unit assumed
# Procedure, shortened: as §1
# Proteus vulgaris 3027 = test: MIC, plate method, standard strains; type: cell-based; conditions: Table 3, standard strain; unit assumed
# Procedure, shortened: as §1
# Klebsiella pneumoniae [3] = test: MIC, plate method, standard strains; type: cell-based; conditions: Table 3, standard strain; unit assumed
# Procedure, shortened: as §1
# [4] = test system: β-lactamase, Pseudomonas aeruginosa GN 238; test: Resistant activity against β-lactamase, iodometric assay; type: biochemical; conditions: β-lactamase from Pseudomonas aeruginosa GN 238; Potassium Penicillin G = 100
# Procedure: (3) Resistant activity against β-lactamase, Pseudomonas aerugionsa GN 238:
# The resistant activity of each compound against β-lactamase was measured in the manner described below.
# β-Lactamase was prepared from Pseudomonas aeruginosa GN 238. This microorganism was cultured in 100 ml of a medium containing 2 g of yeast extract, 10 g of polypeptone, 2 g of glucose, 7 g of disodium hydrogen phosphate, 2 g of potassium dihydrogen phosphate, 1.2 g of ammonium sulfate and 0.4 g of magnesium sulfate, per liter, in a 500-ml Erlenmeyer flask for 6 hrs. at 37° C. with shaking. The resulting cells were collected by centrifugation (5,000 r.p.m.×10 min.), washed three times with 0.1 M phosphate buffer (pH 7.0). Subsequently, the cells were subjected to sonication (20 KHz, 20 min.) and then centrifuged at 15,000 r.p.m. for 60 min. By using the supernatant of enzyme fluid, the resistance of each compound against β-lactamase was determined by the iodometric assay method. Each numeral shown in Table 7 is a relative activity value calculated by assuming as 100 the activity of the control Potassium Penicillin G.
# Staphylococcus aureus = test: MIC against clinical isolates; type: cell-based; conditions: Table 5-1, clinical isolate; unit assumed
# Salmonella typhi-murium = test: MIC against clinical isolates; type: cell-based; conditions: Table 5-5, clinical isolate; unit assumed
# Klebsiella pneumoniae [5] = test: MIC against clinical isolates; type: cell-based; conditions: Table 5-4, clinical isolate; unit assumed
# Shigella flexneri = test: MIC against clinical isolates; type: cell-based; conditions: Table 5-5, clinical isolate; unit assumed
# Procedure: (§2) The minimum inhibitory concentration (MIC) was determined by the plate method disclosed in "Chemotherapy" (Japan), Vol. 16, (1968), pages 98-99. The culture medium used was a Heart infusion agar (pH 7.4). The number of the cells per plate used in the inoculum was 10^4 (10^6 cells/ml).
# (§3) MIC was determined in the same manner as in the preceding paragraph (1).
# Shigella sonnei = test: MIC against clinical isolates; type: cell-based; conditions: Table 5-5, clinical isolate; unit assumed
# Procedure: as §2, §3
# Pseudomonas aeruginosa = test: MIC against clinical isolates; type: cell-based; conditions: unit assumed
# Proteus morganii = test: MIC against clinical isolates; type: cell-based; conditions: Table 5-6, clinical isolate; unit assumed
# Proteus mirabilis = test: MIC against clinical isolates; type: cell-based; conditions: Table 5-6, clinical isolate; unit assumed
smiles,measurement,setting,value
"CN1CCN(C(=O)NC(C(=O)NC2C(=O)N3C2SC(C)(C)C3C(=O)O)c2ccccc2)C(=O)C1=O (single isomer, unassigned) [Compound 37]",MIC Proteus vulgaris,Proteus vulgaris,< 0.4 µg/mL
same,MIC Escherichia coli GN 3435,Escherichia coli,3.13 µg/mL
same,MIC Escherichia coli GN 3452,Escherichia coli,12.5 µg/mL
same,MIC Escherichia coli GN 3465,Escherichia coli,200 µg/mL
same,MIC Escherichia coli GN 3481,Escherichia coli,6.25 µg/mL
same,MIC Escherichia coli GN 3611,Escherichia coli,> 200 µg/mL
same,MIC Escherichia coli K-1,Escherichia coli,12.5 µg/mL
same,MIC Escherichia coli K-2,Escherichia coli,6.25 µg/mL
same,MIC Escherichia coli K-3,Escherichia coli,> 200 µg/mL
same,MIC Escherichia coli K-4,Escherichia coli,3.13 µg/mL
same,MIC Esche--richin coil NIHJ,Escherichia coli NIHJ,< 1.57 µg/mL
same,MIC Staphylococcus aureus 209p,[1],< 1.57 µg/mL
same,MIC Pseudomonas aeruginosa I.F.C,[2],6.25 µg/mL
same,MIC Proteus vulgaris 3027,Proteus vulgaris 3027,< 1.57 µg/mL
same,MIC Klebsiella pneumoniae,Klebsiella pneumoniae [3],6.25 µg/mL
same,"Relative activity (%), resistant activity against β-lactamase",[4],15%
same,MIC Staphylococcus aureus F-1,Staphylococcus aureus,12.5 µg/mL
same,MIC Staphylococcus aureus F-3,Staphylococcus aureus,3.13 µg/mL
same,MIC Staphylococcus aureus F-4,Staphylococcus aureus,6.25 µg/mL
same,MIC Staphylococcus aureus F-5,Staphylococcus aureus,> 200 µg/mL
same,MIC Staphylococcus aureus MS 8588,Staphylococcus aureus,3.13 µg/mL
same,MIC Staphylococcus aureus MS 8596,Staphylococcus aureus,3.13 µg/mL
same,MIC Staphylococcus aureus MS 8684,Staphylococcus aureus,3.13 µg/mL
same,MIC Staphylococcus aureus MS 8713,Staphylococcus aureus,12.5 µg/mL
same,MIC Salmonella typhi-murium SL 2136,Salmonella typhi-murium,> 200 µg/mL
same,MIC Klebsiella pneumoniae GN 917,Klebsiella pneumoniae [5],12.5 µg/mL
same,MIC Klebsiella pneumoniae GN 4081,Klebsiella pneumoniae [5],200 µg/mL
same,MIC Klebsiella pneumoniae GN 4117,Klebsiella pneumoniae [5],100 µg/mL
same,MIC Shigella flexneri JS 11215,Shigella flexneri,> 200 µg/mL
same,MIC Shigella flexneri JS 11839,Shigella flexneri,6.25 µg/mL
same,MIC Shigella sonnei JS 11232,Shigella sonnei,100 µg/mL
same,MIC Shigella sonnei JS 11755,Shigella sonnei,6.25 µg/mL
same,MIC Pseudomonas aeruginosa GN,"Pseudomonas aeruginosa; Table 5-3, clinical isolate, strain number not given",50 µg/mL
same,MIC Pseudomonas aeruginosa GN 82,"Pseudomonas aeruginosa; Table 5-3, clinical isolate",6.25 µg/mL
same,MIC Pseudomonas aeruginosa GN 163,"Pseudomonas aeruginosa; Table 5-3, clinical isolate",12.5 µg/mL
same,MIC Pseudomonas aeruginosa GN 221,"Pseudomonas aeruginosa; Table 5-3, clinical isolate",6.25 µg/mL
same,MIC Pseudomonas aeruginosa GN 376,"Pseudomonas aeruginosa; Table 5-3, clinical isolate",12.5 µg/mL
same,MIC Pseudomonas aeruginosa GN 1035,"Pseudomonas aeruginosa; Table 5-3, clinical isolate",50 µg/mL
same,MIC Pseudomonas aeruginosa GN 1091,"Pseudomonas aeruginosa; Table 5-3, clinical isolate",12.5 µg/mL
same,MIC Pseudomonas neruginosa S-1,"Pseudomonas aeruginosa; Table 5-4, clinical isolate",200 µg/mL
same,MIC Pseudomonas neruginosa S-3,"Pseudomonas aeruginosa; Table 5-4, clinical isolate",50 µg/mL
same,MIC Pseudomonas neruginosa S-4,"Pseudomonas aeruginosa; Table 5-4, clinical isolate",100 µg/mL
"CCCN1CCN(C(=O)NC(C(=O)NC2C(=O)N3C2SC(C)(C)C3C(=O)O)c2ccccc2)C(=O)C1=O (single isomer, unassigned) [Compound 38]",MIC Proteus vulgaris,Proteus vulgaris,< 0.4 µg/mL
same,MIC Escherichia coli GN 3452,Escherichia coli,3.13 µg/mL
same,MIC Escherichia coli GN 3465,Escherichia coli,50 µg/mL
same,MIC Escherichia coli GN 3481,Escherichia coli,3.13 µg/mL
same,MIC Escherichia coli GN 3611,Escherichia coli,> 200 µg/mL
same,MIC Escherichia coli K-1,Escherichia coli,3.13 µg/mL
same,MIC Escherichia coli K-2,Escherichia coli,3.13 µg/mL
same,MIC Escherichia coli K-3,Escherichia coli,> 200 µg/mL
same,MIC Esche--richin coil NIHJ,Escherichia coli NIHJ,< 0.1 µg/mL
same,MIC Staphylococcus aureus 209p,[1],0.4 µg/mL
same,MIC Proteus vulgaris 3027,Proteus vulgaris 3027,0.4 µg/mL
same,MIC Klebsiella pneumoniae,Klebsiella pneumoniae [3],3.13 µg/mL
same,MIC Proteus morganii,Proteus morganii,< 0.4 µg/mL
same,"Relative activity (%), resistant activity against β-lactamase",[4],15%
same,MIC Staphylococcus aureus F-2,Staphylococcus aureus,1.57 µg/mL
same,MIC Staphylococcus aureus F-5,Staphylococcus aureus,> 200 µg/mL
same,MIC Staphylococcus aureus MS 8588,Staphylococcus aureus,3.13 µg/mL
same,MIC Staphylococcus aureus MS 8596,Staphylococcus aureus,3.13 µg/mL
same,MIC Staphylococcus aureus MS 8684,Staphylococcus aureus,3.13 µg/mL
same,MIC Salmonella typhi-murium SL 2136,Salmonella typhi-murium,200 µg/mL
same,MIC Klebsiella pneumoniae GN 917,Klebsiella pneumoniae [5],3.13 µg/mL
same,MIC Klebsiella pneumoniae GN 4081,Klebsiella pneumoniae [5],50 µg/mL
same,MIC Klebsiella pneumoniae GN 4117,Klebsiella pneumoniae [5],50 µg/mL
same,MIC Proteus mirabilis,Proteus mirabilis,< 0.4 µg/mL
same,MIC Shigella flexneri JS 11215,Shigella flexneri,25 µg/mL
same,MIC Shigella flexneri JS 11839,Shigella flexneri,1.57 µg/mL
same,MIC Shigella sonnei JS 11232,Shigella sonnei,50 µg/mL
same,MIC Shigella sonnei JS 11755,Shigella sonnei,3.13 µg/mL
same,MIC Pseudomonas aeruginosa GN 82,"Pseudomonas aeruginosa; Table 5-3, clinical isolate",3.13 µg/mL
same,MIC Pseudomonas aeruginosa GN 163,"Pseudomonas aeruginosa; Table 5-3, clinical isolate",3.13 µg/mL
same,MIC Pseudomonas aeruginosa GN 376,"Pseudomonas aeruginosa; Table 5-3, clinical isolate",3.13 µg/mL
same,MIC Pseudomonas aeruginosa GN 1091,"Pseudomonas aeruginosa; Table 5-3, clinical isolate",3.13 µg/mL
